Test results published in US8791267B2, “Biaryl PDE4 inhibitors for treating inflammatory, cardiovascular and CNS disorders” (Decode Genetics EHF, priority 2007, dated 2014).
Structures can show the parent of a compound that is named as a salt. Where two headings read alike, the source gives them in different places.

What was measured:
PDE4B = PDE4B (Homo sapiens, UniProt Q07343); assay: In-vitro assay for PDE4 enzymes, real-time enzyme-coupled spectrophotometric assay, PDE4B Activity (Table 10); format: biochemical
PDE4B, sequence (Q07343 whole entry): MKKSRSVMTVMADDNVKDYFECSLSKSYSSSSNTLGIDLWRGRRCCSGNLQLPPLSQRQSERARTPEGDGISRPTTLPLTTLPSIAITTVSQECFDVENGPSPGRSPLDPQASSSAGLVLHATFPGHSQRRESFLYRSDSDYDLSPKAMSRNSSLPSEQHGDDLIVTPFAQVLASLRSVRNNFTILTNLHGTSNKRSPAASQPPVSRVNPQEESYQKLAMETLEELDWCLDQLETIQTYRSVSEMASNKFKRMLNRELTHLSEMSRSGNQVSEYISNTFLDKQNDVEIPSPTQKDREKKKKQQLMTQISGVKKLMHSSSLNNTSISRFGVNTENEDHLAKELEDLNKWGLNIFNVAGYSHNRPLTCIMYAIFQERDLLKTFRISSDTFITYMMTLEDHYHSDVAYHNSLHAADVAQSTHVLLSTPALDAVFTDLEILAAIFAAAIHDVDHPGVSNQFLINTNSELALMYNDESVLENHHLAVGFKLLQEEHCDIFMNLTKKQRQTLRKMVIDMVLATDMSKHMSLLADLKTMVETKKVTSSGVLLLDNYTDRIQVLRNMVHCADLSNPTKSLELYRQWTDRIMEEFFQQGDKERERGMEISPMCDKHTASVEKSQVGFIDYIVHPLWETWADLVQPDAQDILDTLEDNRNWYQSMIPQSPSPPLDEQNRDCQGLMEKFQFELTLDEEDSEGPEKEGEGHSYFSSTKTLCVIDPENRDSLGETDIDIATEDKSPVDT

PDE4 = PDE4 (Homo sapiens, UniProt Q08499); assay: In-vitro assay for PDE4 enzymes, real-time enzyme-coupled spectrophotometric assay (Table 9); format: biochemical
PDE4, sequence (Q08499 whole entry): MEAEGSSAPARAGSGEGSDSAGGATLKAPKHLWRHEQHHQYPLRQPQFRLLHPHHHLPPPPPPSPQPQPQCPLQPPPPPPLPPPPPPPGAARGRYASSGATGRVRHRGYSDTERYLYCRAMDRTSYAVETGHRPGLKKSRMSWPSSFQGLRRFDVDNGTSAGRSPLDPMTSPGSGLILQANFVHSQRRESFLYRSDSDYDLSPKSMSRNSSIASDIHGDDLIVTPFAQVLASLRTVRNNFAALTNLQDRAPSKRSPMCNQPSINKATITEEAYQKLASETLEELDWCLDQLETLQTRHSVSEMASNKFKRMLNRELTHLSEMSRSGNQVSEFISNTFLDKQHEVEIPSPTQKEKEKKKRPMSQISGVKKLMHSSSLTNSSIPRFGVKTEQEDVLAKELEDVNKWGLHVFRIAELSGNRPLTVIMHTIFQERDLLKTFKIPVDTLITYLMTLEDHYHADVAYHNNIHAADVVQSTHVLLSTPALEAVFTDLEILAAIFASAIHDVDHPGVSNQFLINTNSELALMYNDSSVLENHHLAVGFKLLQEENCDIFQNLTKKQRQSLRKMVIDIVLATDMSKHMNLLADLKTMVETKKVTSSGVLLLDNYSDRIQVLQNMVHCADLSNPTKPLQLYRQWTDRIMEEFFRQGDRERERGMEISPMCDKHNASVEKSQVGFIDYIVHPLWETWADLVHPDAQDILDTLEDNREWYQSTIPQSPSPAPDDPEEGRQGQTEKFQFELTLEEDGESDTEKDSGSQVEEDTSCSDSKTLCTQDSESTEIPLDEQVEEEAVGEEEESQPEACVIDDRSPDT

[1] = human PDE4B (hPDE4B), enzyme-coupled spectrophotometric assay, read-out: PDE4B Activity, hPDE4B
[2] = human PDE4D, activity class, Table 9, read-out: hPDE4D

SMILES	IC50 (PDE4B; [1])	IC50 (PDE4; [2])	IC50 (PDE4B)	IC50 (PDE4)
COc1ccc(Cc2ccc(CNC(N)=O)cc2)c(F)c1-c1cccc([N+](=O)[O-])c1 [P-237]	< 5 µM	< 5 µM		
COc1ccc(Cn2cc(NC(C)=O)ccc2=O)cc1-c1cccc([N+](=O)[O-])c1 [P-211, N-[1-(6-Methoxy-3′-nitro-biphenyl-3-ylmethyl)-6-oxo-1,6-dihydro-pyridin-3-yl]-acetamide]	5 to 20 µM	5 to 20 µM		
COc1ccc(Cc2ccc(CN)cc2)c(F)c1-c1cccc([N+](=O)[O-])c1 [P-148]	< 5 µM	< 5 µM		
COc1ccc(Cn2cncc2C(N)=O)c(F)c1-c1cccc(Cl)c1 [P-535, 3-(3′-Chloro-2-fluoro-6-methoxy-biphenyl-3-ylmethyl)-3H-imidazole-4-carboxylic acid amide]	< 5 µM	< 5 µM		
COc1ccc(Cc2ccc(NC(C)=O)cc2)cc1-c1cccc([N+](=O)[O-])c1 [P-114]	< 5 µM	< 5 µM		
O=[N+]([O-])c1cccc(-c2cc(Cc3ccc(F)cc3)ccc2O)c1 [P-494, 5-(4-Fluoro-benzyl)-3′-nitro-biphenyl-2-ol]	< 5 µM	< 5 µM		
COc1ccc(Cc2ccc(-n3cnnn3)cc2)c(F)c1-c1cccc(Cl)c1 [P-404, 1-[4-(3′-chloro-2-fluoro-6-methoxy-biphenyl-3-ylmethyl)-phenyl]-1H-tetrazole]	< 5 µM	< 5 µM		
COc1ccc(C2(c3ccc(F)cc3)CCN(C)CC2)cc1-c1cccc(Cl)c1 [P-564, 4-(3′-Chloro-6-methoxy-biphenyl-3-yl)-4-(4-fluoro-phenyl)-1-methyl-piperidine]	21 to 40 µM	5 to 20 µM		
COc1ccc(Cc2cnc(NC(=O)NCCCl)nc2)c(F)c1-c1cccc(C(C)=O)c1 [P-366, 1-[5-(3′-Acetyl-2-fluoro-6-methoxy-biphenyl-3-ylmethyl)-pyrimidin-2-yl]-3-(2-chloro-ethyl)-urea]			< 5 µM	< 5 µM
COc1ccc(CN2CCC[C@H]2CO)cc1-c1cccc([N+](=O)[O-])c1 [P-072, [(S)-1-(6-Methoxy-3′-nitro-biphenyl-3-ylmethyl)-pyrrolidin-2-yl]-methanol]	21 to 40 µM	5 to 20 µM		
COc1ccc(Cc2ccc(NS(C)(=O)=O)c(O)c2)c(F)c1-c1cccc(Cl)c1 [P-264]	5 to 20 µM	< 5 µM		
COc1ccc(C[S+]([O-])c2ccc(F)cc2)cc1-c1cccc([N+](=O)[O-])c1 (centres unmarked) [P-192, 5-(4-Fluoro-benzenesulfinylmethyl)-2-methoxy-3′-nitro-biphenyl]	5 to 20 µM	5 to 20 µM		
CCNC(=O)OCc1ccc(Cc2ccc(OC)c(-c3cccc(Cl)c3)c2)cn1 [P-570, Ethyl-carbamic acid 5-(3′-chloro-6-methoxy-biphenyl-3-ylmethyl)-pyridin-2-ylmethyl ester hydrochloride]	< 5 µM	< 5 µM		
CCNC(=O)Nc1ncc(Cc2ccc(OC)c(-c3cccc(Cl)c3)c2F)cn1 [P-619]	< 5 µM	< 5 µM		
COc1ccc(Cc2cccc(CN)c2)cc1-c1cccc([N+](=O)[O-])c1 [P-161, 3-(6-Methoxy-3′-nitro-biphenyl-3-ylmethyl)-benzylamine]	5 to 20 µM	5 to 20 µM		
COc1ccc(Cc2ccc(NC(N)=O)cc2)nc1-c1cccc(Cl)c1 [P-376, {4-[6-(3-chloro-phenyl)-5-methoxy-pyridin-2-ylmethyl]-phenyl}-urea]	< 5 µM	< 5 µM		
COc1ccc(Cc2ccc(CNC(=O)N3CCN(C)CC3)nc2)c(F)c1-c1cccc(Cl)c1 [P-373, 4-Methyl-piperazine-1-carboxylic acid [5-(3′-chloro-2-fluoro-6-methoxy-biphenyl-3-ylmethyl)-pyridin-2-ylmethyl]-amide]	5 to 20 µM	< 5 µM		
COc1ccc(Cc2ccc(NC(=O)CCC(=O)O)cc2)cc1-c1cccc([N+](=O)[O-])c1 [P-122]	5 to 20 µM	< 5 µM		
CNc1ccc(Cc2ccc(OC)c(-c3cccc(Cl)c3)c2F)cc1 [P-311, [4-(3′-Chloro-2-fluoro-6-methoxy-biphenyl-3-ylmethyl)-phenyl]-methyl-amine]	< 5 µM	< 5 µM		
COc1ccc(CN2CC[C@@H](O)C2)cc1-c1cccc([N+](=O)[O-])c1 [P-071, (R)-1-(6-Methoxy-3′-nitro-biphenyl-3-ylmethyl)-pyrrolidin-3-01]	21 to 40 µM	< 5 µM		
COc1ccc(Cc2ccncc2)cc1-c1cccc([N+](=O)[O-])c1 [P-008]	< 5 µM	< 5 µM		
CCNC(=O)Nc1ccc(Cc2ccc(OC)c(-c3cccc(C#N)c3)c2)cn1 [P-400, 1-[5-(3′-Cyano-6-methoxy-biphenyl-3-ylmethyl)-pyridin-2-yl]-3-ethyl-urea]	< 5 µM	< 5 µM		
COc1ccc(Cc2ccno2)c(O)c1-c1cccc([N+](=O)[O-])c1 [P-130, 3-isoxazol-5-ylmethyl-6-methoxy-3′-nitro-biphenyl-2-ol]	< 5 µM	< 5 µM		
COc1ccc(Cc2ccc(C#N)cc2)c(O)c1-c1cccc([N+](=O)[O-])c1 [P-138, 4-(2-Hydroxy-6-methoxy-3′-nitro-biphenyl-3-ylmethyl)-benzonitrile]	< 5 µM	< 5 µM		
COc1ccc(Cc2ccc(NC(=O)CN(C)C)cc2)c(F)c1-c1cccc([N+](=O)[O-])c1 [P-147]	< 5 µM	< 5 µM		

SMILES	IC50 (PDE4B; [1])	IC50 (PDE4; [2])	IC50 (PDE4B)	IC50 (PDE4)
COc1ccc(Cc2ccc(Cl)nc2)c(F)c1-c1cccc(Cl)c1 [P-226]	5 to 20 µM	< 5 µM		
CCNC(=O)Nc1ccc(Sc2ccc(OC)c(-c3cccc(Cl)c3)c2)cc1 [P-448, 1-[4-(3′-Chloro-6-methoxy-biphenyl-3-ylsulfanyl)-phenyl]-3-ethyl urea]	< 5 µM	< 5 µM		
COc1ccc(Cc2ccc(OC)c(-c3cccc(Cl)c3)c2F)cn1 [P-225]	< 5 µM	< 5 µM		
CNc1ccc(Cc2ccc(OC)c(-c3cccc(C(C)=O)c3)c2F)cn1 [P-336]	< 5 µM	< 5 µM		
COc1ccc(Cc2ccc3c(c2)OCO3)c(F)c1-c1cccc(Cl)c1 [P-242]	< 5 µM	< 5 µM		
COc1cccc(-c2cc(CN3CCCC3=O)ccc2OC)c1 [P-184, 1-(6,3′-Dimethoxy-biphenyl-3-ylmethyl)-pyrrolidin-2-one]	5 to 20 µM	5 to 20 µM		
COc1ccc(CC2CCCS2)c(F)c1-c1cccc([N+](=O)[O-])c1 (centres unmarked) [P-127]	< 5 µM	< 5 µM		
COc1ccc(Cc2ccc(F)cc2)c(N)c1-c1cccc([N+](=O)[O-])c1 [P-176, 3-(4-fluoro-benzyl)-6-methoxy-3′-nitro-biphenyl-2-ylamine]	< 5 µM	< 5 µM		
COc1ccc(Cc2ccnn2C)cc1-c1ccc2c(c1)OC(F)(F)O2 [P-115, 5-[3-(2,2-Difluoro-benzo[1,3]dioxol-5-yl)-4-methoxy-benzyl]-1-methyl-1H-pyrazole]	< 5 µM	< 5 µM		
COc1ccc(Cc2ccnc(C#N)c2)c(F)c1-c1cccc(Cl)c1 [P-433, 4-(3′-Chloro-2-fluoro-6-methoxy-biphenyl-3-ylmethyl)-pyridine-2-carbonitrile]	< 5 µM	< 5 µM		
COc1ccc(CN2CC[C@H](O)C2)cc1-c1cccc([N+](=O)[O-])c1 [P-070, (S)-1-(6-Methoxy-3′-nitro-biphenyl-3-ylmethyl)-pyrrolidin-3-ol]	21 to 40 µM	< 5 µM		
COc1ccc(Cc2ccc(CNC(C)=O)c(F)c2)c(F)c1-c1cccc(Cl)c1 [P-300]	< 5 µM	< 5 µM		
COc1ccc(Cc2ccc(N3CC(O)C3)nc2)c(F)c1-c1cccc(Cl)c1 [P-457, 1-[5-(3′-Chloro-2-fluoro-6-methoxy-biphenyl-3-ylmethyl)-pyridin-2-yl]-azetidin-3-ol]	< 5 µM	< 5 µM		
COc1ccc(COc2ccc(NC(C)=O)cc2)c(F)c1-c1cccc(Cl)c1 [P-594]	< 5 µM	< 5 µM		
COc1ccc(CCn2ccccc2=O)cc1-c1cccc([N+](=O)[O-])c1 [P-244, 1-[2-(6-Methoxy-3′-nitro-biphenyl-3-yl)-ethyl]-1H-pyridin-2-one]	< 5 µM	< 5 µM		
COc1ccc(Cc2ccc(F)cc2)c(F)c1-c1cccc(Cl)c1 [P-187]	< 5 µM	< 5 µM		
CCOc1ccc(Cc2ccc(NC(N)=O)cc2)c(F)c1-c1cccc(C(C)=O)c1 [P-335, [4-(3′-Acetyl-6-ethoxy-2-fluoro-biphenyl-3-ylmethyl)-phenyl]-urea]	< 5 µM	< 5 µM		
COc1ccc(Cc2ccc(OC[C@H]3CCCN3)nc2)c(F)c1-c1cccc(Cl)c1 [P-523, 5-(3′-Chloro-2-fluoro-6-methoxy-biphenyl-3-ylmethyl)-2-((R)-1-pyrrolidin-2-ylmethoxy)-pyridine]	< 5 µM	< 5 µM		
COc1ccc(CC2CCCS2)c(F)c1-c1cccc([N+](=O)[O-])c1 (centres unmarked) [P-128, 2-(2-fluoro-6-methoxy-3′-nitro-biphenyl-3-ylmethyl)-tetrahydro-thiophene]	< 5 µM	< 5 µM		
COc1ccc(Cc2ccc(C(N)=O)cc2)c(F)c1-c1cccc(C(C)=O)c1 [P-305, 4-(3′-Acetyl-2-fluoro-6-methoxy-biphenyl-3-ylmethyl)-benzamide]	5 to 20 µM	< 5 µM		
NC(=O)Nc1ccc(Cc2ccc(OC[C@@H]3CCCN3)c(-c3cccc(Cl)c3)c2)cc1 [P-563, {4-[3′-Chloro-6-((S)-1-pyrrolidin-2-ylmethoxy)-biphenyl-3-ylmethyl]-phenyl}-urea]	5 to 20 µM	< 5 µM		
COc1ccc(Cc2ccc(NCC(N)=O)nc2)c(F)c1-c1cccc(Cl)c1 [P-471]	< 5 µM	< 5 µM		
COc1ccc(Cc2ccc(Cl)nc2)c(F)c1-c1cccc([N+](=O)[O-])c1 [P-152]	< 5 µM	< 5 µM		
COc1ccc(Cc2ccc(N3CCOC3=O)nc2)c(F)c1-c1cccc(Cl)c1 [P-469, 3-[5-(3′-Chloro-2-fluoro-6-methoxy-biphenyl-3-ylmethyl)-pyridin-2-yl]-oxazolidin-2-one]	< 5 µM	< 5 µM		
